Experimental data from publication PMC9564337, “Development of a Neurotensin-Derived ^68Ga-Labeled PET Ligand with High In Vivo Stability for Imaging of NTS1 Receptor-Expressing Tumors” (Cancers, 2022).
Like-named read-outs stand apart in the source and are kept apart here. Residues, ends and D or L forms follow the SMILES beside them.

Columns and labels:
hNTS1R = biological target: T1, hNTS1R (Homo sapiens, UniProt P30989); test: radioligand competition binding with [3H]UR-MK300 at intact HT-29 cells; details: for Ki: [3H]UR-MK300 c = 1 nM, HT-29 cells, 23 °C
T1 construct: intact HT-29 colon carcinoma cells expressing the hNTS1R; host or cells: HT-29 human colon carcinoma cells
T1 sequence (P30989 whole entry): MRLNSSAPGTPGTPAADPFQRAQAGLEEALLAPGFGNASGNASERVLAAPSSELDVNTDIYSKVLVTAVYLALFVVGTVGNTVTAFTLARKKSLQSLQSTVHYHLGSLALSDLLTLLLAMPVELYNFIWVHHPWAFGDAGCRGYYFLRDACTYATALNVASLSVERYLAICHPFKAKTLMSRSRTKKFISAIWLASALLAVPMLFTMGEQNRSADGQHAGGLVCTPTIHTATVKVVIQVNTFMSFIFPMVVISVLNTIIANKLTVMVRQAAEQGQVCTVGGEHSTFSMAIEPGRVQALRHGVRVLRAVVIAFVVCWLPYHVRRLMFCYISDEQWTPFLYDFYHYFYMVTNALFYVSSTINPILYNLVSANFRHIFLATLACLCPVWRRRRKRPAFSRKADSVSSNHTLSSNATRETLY
Description: Specific binding data (obtained by subtracting unspecific binding from total binding) were normalized (100% = specifically bound radioligand in the absence of competitor) and plotted over log(concentration of competitor) followed by a four-parameter logistic fit (SigmaPlot 12.5, Systat Software, San José, CA, USA) (note: in the case of 40, the lower curve plateau of the sigmoidal fit was constrained to >0). […] The Ki values from individual experiments were transformed to pKi values, followed by the calculation of mean pKi values ± SD.

in vitro = in vitro ADME; details: human; for remaining at 1 h, 100 µM: pH 7.4, % Intact Peptide in Plasma after 1 h; for remaining at 6 h, 100 µM: pH 7.4, % Intact Peptide in Plasma after 6 h; for remaining at 24 h, 100 µM: pH 7.4, % Intact Peptide in Plasma after 24 h; for remaining at 48 h, 100 µM: pH 7.4, % Intact Peptide in Plasma after 48 h; for % Intact Peptide in Plasma after 1 h / % Intact Peptide in Plasma after 6 h: 100 µM, pH 7.4
Method: The concentration of the peptides in plasma/PBS (1:2 v/v) was 80 and 4 μM (recovery determination) or 100 μM (stability tests). Data analysis was based on UV detection at 220 nm (8, 9, 11, 12, 14-18, 21-23, 38-49, and 54-57) or fluorescence detection at 275/305 nm (19 and 20). Reference samples, representing 100% recovery, were prepared in duplicate (8, 9, 11, 14-16, and 19-21) or quadruplicate (12, 17, 18, 22, 23, 38-49, and 54-57). Recovery ratios were obtained by dividing the recovery of the peptide by the recovery of IS for each individual sample (n = 3-5). The obtained recoveries and the recovery ratios are summarized in Table S2, Supplementary Materials. […] Instead, the recovery ratios determined for the previously reported, structurally closely related peptide […] [40] were used for calculating the amount of remaining intact peptide in plasma.

[1] = read-out: Ki [nM] NTS1R (converted)
[2] = read-out: pKi ± SD NTS1R (converted)

| Ki (hNTS1R; [1]) | Ki (hNTS1R; [2]) | remaining at 1 h, 100 µM (in vitro; plasma) | remaining at 6 h, 100 µM (in vitro; plasma) | remaining at 24 h, 100 µM (in vitro; plasma) | remaining at 48 h, 100 µM (in vitro; plasma) | % Intact Peptide in Plasma after 1 h (in vitro) | % Intact Peptide in Plasma after 6 h (in vitro) | half-life at 100 µM (in vitro; plasma) | increase in NTS1R affinity upon insertion of Ga3+ (hNTS1R; versus the precursor with empty DOTA chelator (32 or 54)) | Structure (SMILES) |
| --- | --- | --- | --- | --- | --- | --- | --- | --- | --- | --- |
| 85 nM | 79.4 nM | – | – | – | – | – | – | – | – | CN[C@@H](CCCNC(=N)NC(=O)NCCCCNC(=O)CN1CCN(CC(=O)O)CCN(CC(=O)O)CCN(CC(=O)O)CC1)C(=O)N[C@@H](CCCNC(=N)N)C(=O)N1CCC[C@H]1C(=O)N[C@H](C(=O)N[C@H](C(=O)N[C@@H](CC(C)C)C(=O)O)C(C)(C)C)C(C)(C)c1ccc(O)cc1 [Compound 55] |
| – | – | 90 ± 4% | 97 ± 6% | 92 ± 1% | 92 ± 1% | – | – | – | – | CC[C@H](C)[C@H](NC(=O)[C@@H](NC(=O)[C@@H]1CCCN1C(=O)[C@H](CCCNC(=N)N)NC(=O)[C@H](CCCNC(=N)N)NC)C(C)(C)c1ccc(O)cc1)C(=O)N[C@@H](CC(C)C)C(=O)O [Compound 48] |
| – | – | > 99% | > 99% | 77 ± 1% | < 1% | – | – | > 24 h | – | CC[C@H](C)[C@H](NC(=O)[C@@H](NC(=O)[C@@H]1CCCN1C(=O)[C@H](CCCNC(=N)N)NC(=O)[C@H](CCCNC(N)=NC(=O)NCCCCNC(=O)CN1CCN(CC(=O)O)CCN(CC(=O)O)CCN(CC(=O)O)CC1)NC)C(C)(C)c1ccc(O)cc1)C(=O)N[C@@H](CC(C)C)C(=O)O [Compound 56] |
| 2.6 nM | 2.34 nM | 25 ± 2% | < 1% | < 1% | < 1% | – | – | – | – | CC[C@H](C)[C@H](NC(=O)[C@H](Cc1ccc(O)cc1)NC(=O)[C@@H]1CCCN1C(=O)[C@H](CCCNC(=N)N)NC(=O)[C@H](CCCNC(=N)N)NC)C(=O)N[C@@H](CC1CC1)C(=O)O [Compound 46] |
| – | – | 96 ± 2% | 96 ± 1% | 94 ± 5% | 95 ± 2% | – | – | – | – | CC[C@H](C)[C@H](NC(=O)[C@H](NC(=O)[C@@H]1CCCN1C(=O)[C@H](CCCNC(=N)N)NC(=O)[C@H](CCCNC(=N)N)NC)C(C)(C)c1ccc(O)cc1)C(=O)N[C@@H](CC(C)C)C(=O)O [Compound 49] |
| – | – | 89 ± 1% | 88 ± 1% | 81 ± 1% | 73 ± 1% | – | – | – | – | CC[C@H](C)[C@H](NC(=O)[C@H](Cc1ccc(O)cc1)NC(=O)[C@@H]1CCCN1C(=O)[C@H](CCCNC(=N)N)NC(=O)[C@H](CCCNC(=N)N)NC)C(=O)N[C@@](C)(CC(C)C)C(=O)O [Compound 47] |

The remaining lines, values behind:

| Structure (SMILES) | Ki (hNTS1R; [1]) | Ki (hNTS1R; [2]) | remaining at 1 h, 100 µM (in vitro; plasma) | remaining at 6 h, 100 µM (in vitro; plasma) | remaining at 24 h, 100 µM (in vitro; plasma) | remaining at 48 h, 100 µM (in vitro; plasma) | % Intact Peptide in Plasma after 1 h (in vitro) | % Intact Peptide in Plasma after 6 h (in vitro) | half-life at 100 µM (in vitro; plasma) | increase in NTS1R affinity upon insertion of Ga3+ (hNTS1R; versus the precursor with empty DOTA chelator (32 or 54)) |
| --- | --- | --- | --- | --- | --- | --- | --- | --- | --- | --- |
| CN[C@@H](CCCNC(N)=NC(=O)NCCOCCOCCNC(=O)[C@@H](Cc1ccc(-c2ccc(F)cc2)cc1)NC(=O)CCCCCNC(=O)CN1CCN(CC(=O)O)CCN(CC(=O)O)CCN(CC(=O)O)CC1)C(=O)N[C@@H](CCCNC(=N)N)C(=O)N1CCC[C@H]1C(=O)N[C@@H](Cc1ccc(O)cc1)C(=O)N[C@H](C(=O)N[C@@H](CC(C)C)C(=O)O)C(C)(C)C [Compound 32] | 12 nM | 10.7 nM | – | – | – | – | – | – | – | – |
| CC[C@H](C)[C@H](NC(=O)[C@H](Cc1ccc(O)cc1)NC(=O)[C@@H]1CCCN1C(=O)[C@H](CCCNC(=N)NC(=O)NCCCCNC(=O)CN1CCN(CC(=O)O)CCN(CC(=O)O)CCN(CC(=O)O)CC1)NC(=O)[C@H](CCCNC(=N)N)NC)C(=O)N[C@@H](CC(C)C)C(=O)O [Compound 20] | – | – | – | – | 15 ± 1% | 4.6 ± 0.1% | >99% | 77 ± 2% | – | – |
| CN[C@@H](CCCNC(N)=NC(=O)NCCOCCOCCNC(=O)[C@@H](Cc1ccc(-c2ccc(F)cc2)cc1)NC(=O)CN1CCN(CC(=O)O)CCN(CC(=O)O)CCN(CC(=O)O)CC1)C(=O)N[C@@H](CCCNC(=N)N)C(=O)N1CCC[C@H]1C(=O)N[C@@H](Cc1ccc(O)cc1)C(=O)N[C@H](C(=O)N[C@@H](CC(C)C)C(=O)O)C(C)(C)C [Compound 35] | 14 nM | 13.5 nM | – | – | – | – | – | – | – | – |
| CN[C@@H](CCCNC(N)=NC(=O)NCCCCNC(=O)[C@H](N)Cc1ccc(-c2ccc(F)cc2)cc1)C(=O)N[C@@H](CCCNC(=N)N)C(=O)N1CCC[C@H]1C(=O)N[C@@H](Cc1ccc(O)cc1)C(=O)N[C@H](C(=O)N[C@@H](CC(C)C)C(=O)O)C(C)(C)C [Compound 25] | 4.3 nM | 4.27 nM | – | – | – | – | – | – | – | – |
| CC[C@H](C)[C@H](NC(=O)[C@H](Cc1ccc(O)cc1)NC(=O)[C@@H]1CCCN1C(=O)[C@H](CCCNC(=N)NC(=O)NCCCCN)NC(=O)[C@H](CCCNC(=N)N)NC)C(=O)N[C@@H](CC(C)C)C(=O)O [Compound 9] | – | – | 99 ± 2% | 57 ± 2% | 3 ± 0.1% | 1.4 ± 0.3% | – | – | – | – |
| CN[C@@H](CCCNC(=N)N)C(=O)N[C@@H](CCCNC(=N)N)C(=O)N1CCC[C@H]1C(=O)N[C@@H](Cc1ccc(O)cc1)C(=O)N[C@H](C(=O)N[C@@H](CC(C)C)C(=O)O)C1CCC1 [Compound 42] | 1.1 nM | 1.05 nM | 91 ± 1% | 79 ± 1% | 32 ± 1% | < 1% | – | – | – | – |
| CN[C@@H](CCCNC(=N)N)C(=O)N[C@@H](CCCNC(=N)N)C(=O)N1CCC[C@H]1C(=O)N[C@@H](Cc1ccc(O)cc1)C(=O)N[C@H](C(=O)N[C@@H](CC(C)C)C(=O)O)C1CCCC1 [Compound 43] | 1.2 nM | – | 99 ± 1% | 95 ± 1% | 78 ± 1% | 58 ± 1% | – | – | – | – |
| CN[C@@H](CCCNC(=N)N)C(=O)N[C@@H](CCCNC(=N)N)C(=O)N1CCC[C@H]1C(=O)N[C@@H](Cc1ccc(O)cc1)C(=O)N[C@@](C)(CC(C)C)C(=O)N[C@@H](CC(C)C)C(=O)O [Compound 44] (HELM PEPTIDE1{[meR].R.P.Y.[CC(C)C[C@](C)(N[*:1])C(=O)[*:2]].L}$$$$V2.0) | > 1000 nM | > 1000 nM | 94 ± 1% | 91 ± 4% | 91 ± 1% | 87 ± 1% | – | – | – | – |
| CN[C@@H](CCCNC(=N)N)C(=O)N[C@@H](CCCNC(=N)N)C(=O)N1CCC[C@H]1C(=O)N[C@@H](Cc1ccc(O)cc1)C(=O)N[C@@H](CC1CC1)C(=O)N[C@@H](CC(C)C)C(=O)O [Compound 41] | 5 nM | – | 92 ± 1% | 74 ± 1% | 15 ± 1% | < 1% | – | – | – | – |
| CC[C@H](C)[C@H](NC(=O)[C@H](Cc1ccc(O)cc1)NC(=O)[C@@H]1CCCN1C(=O)[C@H](CCCNC(=N)NC(=O)NCCCCNC(=O)CN1CCN(CC(=O)O)CCN(CC(=O)O)CCN(CC(=O)O)CC1)NC(=O)[C@H](CCCNC(=N)N)NC)C(=O)N[C@@H](CC(C)C)C(=O)O [Compound 15] | – | – | – | – | – | – | 78 ± 1% | 8.3 ± 0.4% | – | – |
| CC[C@@H](C)[C@H](NC(=O)[C@H](Cc1ccc(O)cc1)NC(=O)[C@@H]1CCCN1C(=O)[C@H](CCCNC(=N)N)NC(=O)[C@H](CCCNC(=N)N)NC)C(=O)N[C@@H](CC(C)C)C(=O)O [Compound 38] | 4.8 nM | 4.68 nM | 92 ± 1% | 87 ± 1% | 70 ± 1% | 52 ± 1% | – | – | – | – |
| CN[C@@H](CCCNC(=N)NC(=O)NCCOCCOCCN)C(=O)N[C@@H](CCCNC(=N)N)C(=O)N1CCC[C@H]1C(=O)N[C@@H](Cc1ccc(O)cc1)C(=O)N[C@H](C(=O)N[C@@H](CC(C)C)C(=O)O)C(C)(C)C [Compound 12] | 2.7 nM | 2.45 nM | 97 ± 3% | 97 ± 3% | 94 ± 3% | 91 ± 3% | – | – | – | – |
| CN[C@@H](CCCNC(N)=NC(=O)NCCCCNC(=O)[C@@H](Cc1ccc(-c2ccc(F)cc2)cc1)NC(=O)CN1CCN(CC(=O)O)CCN(CC(=O)O)CCN(CC(=O)O)CC1)C(=O)N[C@@H](CCCNC(=N)N)C(=O)N1CCC[C@H]1C(=O)N[C@@H](Cc1ccc(O)cc1)C(=O)N[C@H](C(=O)N[C@@H](CC(C)C)C(=O)O)C(C)(C)C [Compound 34] | 10 nM | 10.2 nM | – | – | – | – | – | – | – | – |
| CN[C@@H](CCCNC(N)=NC(=O)NCCOCCOCCNC(=O)[C@@H](Cc1ccc(-c2ccc(F)cc2)cc1)NC(=O)CCCCCNC(=O)CN1CCN(CC(=O)O)CCN(CC(=O)O)CCN(CC(=O)O)CC1)C(=O)N[C@@H](CCCNC(=N)N)C(=O)N1CCC[C@H]1C(=O)N[C@@H](Cc1ccc(O)cc1)C(=O)N[C@H](C(=O)N[C@@H](CC(C)C)C(=O)O)C(C)(C)C [Compound 33] | – | – | – | – | – | – | – | – | – | 4.8 fold |
| CN[C@@H](CCCNC(N)=NC(=O)NCCOCCOCCNC(=O)[C@H](N)Cc1ccc(-c2ccc(F)cc2)cc1)C(=O)N[C@@H](CCCNC(=N)N)C(=O)N1CCC[C@H]1C(=O)N[C@@H](Cc1ccc(O)cc1)C(=O)N[C@H](C(=O)N[C@@H](CC(C)C)C(=O)O)C(C)(C)C [Compound 26] | 3.1 nM | 3.02 nM | – | – | – | – | – | – | – | – |
